Source: patent EP3041456B1, “COMPOSITION AND METHOD FOR INDUCING OR STIMULATING GROWTH OF KERATINOUS FIBRES” (priority 2013, dated 2015)

Tests used:
hair follicles = experiment: Components of turpentine oil: number of hair follicles after 4-week topical treatment; format: in vivo, mice; details: 4 weeks; for Mean number of hair follicles per 1 mm of skin +/- S.D.: 0.1 mL topically twice weekly, 10 mice per group
From the text: (§1) The following commercially available, components of turpentine oil were investigated: • (-) α-pinene; product No 13.127.32 Janssen Chim. 2440 Geel, Belgium • (+) α-pinene; product No 13.126.31 Janssen Chim. 2440, Geel Belgium • (-) β-pinene; product No 15.032.94 Janssen Chim, Geel, Belgium • Turpentine oil crude industrial product was originated from Portugal.
(§2) Young adult, male mice of the N.M.R.I. strain, weighing at the beginning of the experiment +/- 30 g were used, as in previous experiments.
(§3) The protocols used were similar to those described in the previous experiments and study was realized during summer months (July and August). Hair coats were cut along the dorsal surfaces with electric clippers in an area of +/- 6.0 cm^2 two days before treatments. Mice were divided into 4 groups of 10 animals. Each mouse received either • (1) A dose of 0.1 mL of 5% absolute ethanol solution of turpentine oil, • (2) (-) α-pinene, • (3) (+) α-pinene or • (4) (-) β-pinene administered topically on the surface of the shaved skin twice weekly.
(§4) Control groups of the same number and similar age and sex mice were treated the same way but topically applied the solvent alone (absolute ethanol).
(§5) After a 4-week treatment duration all the mice were sacrificed by decapitation, and general autopsies were performed in which skin and main organs specimens were excised and fixed in 10% formalin for histological examination after paraffin embedding and hematoxylin -eosin staining.
(§6) The following evaluating criteria of the observations and results were used: • (1) body and main organ weights, • (2) skin and main organs histological patterns, • (3) semi quantitative evaluation of hair follicles per 1 mm long area in a 5 different areas of the histological sections of the skin of each animal in each group at 100 x microscopic magnification.

[1] = Components of turpentine oil: body and main organ weights, autopsy, histology; format: in vivo, mice; parameters: main organs' weights, Liver / main organs' weights, Spleen / main organs' weights, 2 kidneys / main organs' weights, 2 testicles / main organs' weights, Thymus / main organs' weights, Brain: unit not given here; details: 5% in ethanol, 4 weeks; for Total body weight in gram / main organs' weights, 2 kidneys / main organs' weights, 2 testicles / main organs' weights, Brain / main organs' weights, Liver / main organs' weights, Spleen / main organs' weights, Thymus: Mean +/- S.D., 10 mice per group
From the text: as §1, §2, §3, §4, §5, §6

SMILES	Mean number of hair follicles per 1 mm of skin +/- S.D. (hair follicles; 5% in absolute ethanol)	Mean number of hair follicles per 1 mm of skin +/- S.D. (hair follicles; 5% in absolute ethanol, listed as (+) α- pinene)	activity (hair follicles multiplication) compared with the control group (hair follicles; 5% in ethanol)	Total body weight in gram [1]	main organs' weights, 2 kidneys [1]	main organs' weights, 2 testicles [1]	main organs' weights, Brain [1]	main organs' weights, Liver [1]	main organs' weights, Spleen [1]	main organs' weights, Thymus [1]	Mean number of hair follicles per 1 mm of skin +/- S.D. (hair follicles; 5% in absolute ethanol, listed as (-) α- pinene)	mice with more than 50 hair follicles (hair follicles; 5% in absolute ethanol, group of 10 mice)	local skin alteration (clinical signs or microscopic examination) (hair follicles; 5% in ethanol)	general toxicity [1]	Mean number of hair follicles per 1 mm of skin +/- S.D. (hair follicles; 5% in absolute ethanol, listed as (-) β- pinene)	Mean number of hair follicles per 1 mm of skin +/- S.D. (hair follicles; 5% in absolute ethanol, listed as β-pinene)
CC1=CC[C@@H]2C[C@H]1C2(C)C [(+) α-pinene, (1R)-(+)-α-pinene]	28.9 per 1 mm of skin	28.9 ± 6.4 per 1 mm of skin	only slightly superior to the effects of treatment with the solvent lone	40.1 ± 3.73 gram	840 ± 89.7	432 ± 34.9	658 ± 23.8	2834 ± 283.4	390 ± 36.7	266 ± 18.1						
CC1=CC[C@H]2C[C@@H]1C2(C)C [(-) α-pinene, (1S)-(-)-α-pinene]	52.6 per 1 mm of skin		more than double	39.5 ± .42 gram	814 ± 121.7	440 ± 41.8	674 ± 23	2790 ± 449.9	332 ± 24.9	252 ± 22.8	52.6 ± 7.8 per 1 mm of skin	6 out of 10	did not produce any local skin alteration	neither any sign of a possible general toxicity		
C=C1CC[C@H]2C[C@@H]1C2(C)C [(-) β-pinene, (1S)-(-)-β-pinene]			only slightly superior to the effects of treatment with the solvent lone												28.1 ± 7.6 per 1 mm of skin	28.1 per 1 mm of skin
